# Test: PAMPA permeability
# Format: in vitro ADME
row,Compound,PAMPA permeability
1,"Cc1ccccc1-c1nc(CN2CCC(C(=O)NCCCN3C[C@H](C)C[C@@H](C)C3)CC2)c(C)o1 (racemic) [7b, (±)-N-(3-(trans-3,5-Dimethylpiperidin-1-yl)propyl)-1-((5-methyl-2-(o-tolyl)oxazol-4-yl)methyl)piperidine-4-carboxamide]",553.7 1×10^−6 cm/s
2,"Cc1ccccc1-c1nc(CN2CCC(C(=O)NCCCN3CCCC(CC(C)C)C3)CC2)c(C)o1 (racemic) [7l, (±)-N-(3-(3-Isobutylpiperidin-1-yl)propyl)-1-((5-methyl-2-(otolyl)oxazol-4-yl)methyl)piperidine-4-carboxamide]",3 1×10^−6 cm/s
3,"Cc1cccc(Cl)c1-c1nc(CN2CCC(C(=O)NCCCN3CCCC(C)C3)CC2)c(C)o1 (racemic) [7oo, (±)-1-((2-(2-Chloro-6-methylphenyl)-5-methyloxazol-4-yl)-methyl)-N-(3-(3-methylpiperidin-1-yl)propyl)piperidine-4-carboxamide]",650.6 1×10^−6 cm/s
4,"Cc1ccccc1-c1nc(CN2CCC(C(=O)NCCCN3C[C@H](C)C[C@H](C)C3)CC2)c(C)o1 [7a, N-(3-(cis-3,5-Dimethylpiperidin-1-yl)propyl)-1-((5-methyl-2-(o-tolyl)oxazol-4-yl)-methyl)piperidine-4-carboxamide]",489.1 1×10^−6 cm/s
5,"Cc1ccc2ccccc2c1-c1nc(CN2CCC(C(=O)NCCCN3C[C@H](C)C[C@H](C)C3)CC2)c(C)o1 [7bbb, N-(3-(cis-3,5-Dimethylpiperidin-1-yl)propyl)-1-((5-methyl-2-(2-methylnaphthalen-1-yl)oxazol-4-yl)methyl)piperidine-4-carboxamide]",547.1 1×10^−6 cm/s
6,"CC[C@@H]1C[C@H](CC)CN(CCCNC(=O)C2CCN(Cc3nc(-c4ccccc4C)oc3C)CC2)C1 [7c, N-(3-(cis-3,5-Diethylpiperidin-1-yl)propyl)-1-((5-methyl-2-(otolyl)oxazol-4-yl)methyl)piperidine-4-carboxamide]",1267 1×10^−6 cm/s
7,"Cc1oc(-c2c(C)c(C)c(C)c(C)c2C)nc1CN1CCC(C(=O)NCCCN2C[C@H](C)C[C@H](C)C2)CC1 [7cc, N-(3-(cis-3,5-Dimethylpiperidin-1-yl)propyl)-1-((2-(2,3,4,5,6-pentamethylphenyl)-5-methyloxazol-4-yl)methyl)piperidine-4-carboxamide]",455.2 1×10^−6 cm/s
8,"Cc1ccccc1-c1nc(CN2CCC(C(=O)NCCCN3CC(C)(C)CC(C)(C)C3)CC2)c(C)o1 [7d, 1-((5-Methyl-2-(o-tolyl)oxazol-4-yl)methyl)-N-(3-(cis-3,3,5,5-tetramethylpiperidin-1-yl)propyl)piperidine-4-carboxamide]",>1397 1×10^−6 cm/s
9,"Cc1oc(-c2ccccc2Cl)nc1CN1CCC(C(=O)NCCCN2C[C@H](C)C[C@H](C)C2)CC1 [7dd, N-(3-(cis-3,5-Dimethylpiperidin-1-yl)propyl)-1-((2-(2-chlorophenyl)-5-methyloxazol-4-yl)methyl)piperidine-4-carboxamide]",352.4 1×10^−6 cm/s
10,"Cc1ccccc1-c1nc(CN2CCC(C(=O)NCCCN3CCC(C(C)C)CC3)CC2)c(C)o1 [7e, N-(3-(4-Isopropylpiperidin-1-yl)propyl)-1-((5-methyl-2-(o-tolyl)-oxazol-4-yl)methyl)piperidine-4-carboxamide]",395.6 1×10^−6 cm/s
11,"Cc1oc(-c2cccc(Cl)c2)nc1CN1CCC(C(=O)NCCCN2C[C@H](C)C[C@H](C)C2)CC1 [7ee, N-(3-(cis-3,5-Dimethylpiperidin-1-yl)propyl)-1-((2-(3-chlorophenyl)-5-methyloxazol-4-yl)methyl)piperidine-4-carboxamide]",615.1 1×10^−6 cm/s
12,"Cc1ccccc1-c1nc(CN2CCC(C(=O)NCCCN3CCC(C)(C)CC3)CC2)c(C)o1 [7f, N-(3-(4,4-Dimethylpiperidin-1-yl)propyl)-1-((5-methyl-2-(o-tolyl)-oxazol-4-yl)methyl)piperidine-4-carboxamide]",241.4 1×10^−6 cm/s
13,"Cc1oc(-c2ccc(Cl)cc2)nc1CN1CCC(C(=O)NCCCN2C[C@H](C)C[C@H](C)C2)CC1 [7ff, N-(3-(cis-3,5-Dimethylpiperidin-1-yl)propyl)-1-((2-(4-chlorophenyl)-5-methyloxazol-4-yl)methyl)piperidine-4-carboxamide]",>635.0 1×10^−6 cm/s
14,"Cc1ccccc1-c1nc(CN2CCC(C(=O)NCCCN3CCC(C)CC3)CC2)c(C)o1 [7g, N-(3-(4-Methylpiperidin-1-yl)propyl)-1-((5-methyl-2-(o-tolyl)-oxazol-4-yl)methyl)piperidine-4-carboxamide]",424.7 1×10^−6 cm/s
15,"Cc1ccccc1-c1nc(CN2CCC(C(=O)NCCCN3CCCCC3)CC2)c(C)o1 [7h, N-(3-(Piperidin-1-yl)propyl)-1-((5-methyl-2-(o-tolyl)oxazol-4-yl)-methyl)piperidine-4-carboxamide]",34.5 1×10^−6 cm/s
16,"Cc1ccccc1-c1nc(CN2CCC(C(=O)NCCCN3[C@H](C)CCC[C@@H]3C)CC2)c(C)o1 [7i, N-(3-(cis-2,6-Dimethylpiperidin-1-yl)propyl)-1-((5-methyl-2-(otolyl)oxazol-4-yl)methyl)piperidine-4-carboxamide]",55.4 1×10^−6 cm/s

row,Compound,PAMPA permeability
1,"Cc1oc(-c2c(F)cccc2F)nc1CN1CCC(C(=O)NCCCN2C[C@H](C)C[C@H](C)C2)CC1 [7jj, N-(3-(cis-3,5-Dimethylpiperidin-1-yl)propyl)-1-((2-(2,6-difluorophenyl)-5-methyloxazol-4-yl)methyl)piperidine-4-carboxamide]",82.4 1×10^−6 cm/s
2,"CC[C@@H]1C[C@H](CC)CN(CCCNC(=O)C2CCN(Cc3nc(-c4c(F)cccc4F)oc3C)CC2)C1 [7kk, N-(3-(cis-3,5-Diethylpiperidin-1-yl)propyl)-1-((2-(2,6-difluorophenyl)-5-methyloxazol-4-yl)methyl)piperidine-4-carboxamide]",129.9 1×10^−6 cm/s
3,"Cc1oc(-c2c(Br)cccc2Br)nc1CN1CCC(C(=O)NCCCN2C[C@H](C)C[C@H](C)C2)CC1 [7ll, N-(3-(cis-3,5-Dimethylpiperidin-1-yl)propyl)-1-((2-(2,6-dibromophenyl)-5-methyloxazol-4-yl)methyl)piperidine-4-carboxamide]",<1.0 1×10^−6 cm/s
4,"Cc1ccccc1-c1nc(CN2CCC(C(=O)NCCCN3CC4CCCC(C4)C3)CC2)c(C)o1 [7m, N-(3-(3-Azabicyclo[3.3.1]nonan-3-yl)propyl)-1-((5-methyl-2-(otolyl)oxazol-4-yl)methyl)piperidine-4-carboxamide]",330.9 1×10^−6 cm/s
5,"Cc1ccccc1-c1nc(CN2CCC(C(=O)NCCN3C[C@H](C)C[C@H](C)C3)CC2)c(C)o1 [7n, N-(3-(cis-3,5-Dimethylpiperidin-1-yl)ethyl)-1-((5-methyl-2-(otolyl)oxazol-4-yl)methyl)piperidine-4-carboxamide]",712.4 1×10^−6 cm/s
6,"Cc1cccc(Cl)c1-c1nc(CN2CCC(C(=O)NCCCN3C[C@H](C)C[C@H](C)C3)CC2)c(C)o1 [7nn, N-(3-(cis-3,5-Dimethylpiperidin-1-yl)propyl)-1-((2-(2-chloro-6-methylphenyl)-5-methyloxazol-4-yl)methyl)piperidine-4-carboxamide]",196.3 1×10^−6 cm/s
7,"CCCN(CCC)CCNC(=O)C1CCN(Cc2nc(-c3ccccc3C)oc2C)CC1 [7p, N-(2-(Dipropylamino)ethyl)-1-((5-methyl-2-(o-tolyl)oxazol-4-yl)-methyl)piperidine-4-carboxamide]",913.1 1×10^−6 cm/s
8,Cc1ccccc1-c1nc(CN2CCC(C(=O)NCCCN3CCOCC3)CC2)c(C)o1 [7q],432.4 1×10^−6 cm/s
9,"Cc1ccccc1-c1nc(CN2CCC(C(=O)N3CCN(C4CCN(C)CC4)CC3)CC2)c(C)o1 [7r, (1-((5-Methyl-2-(o-tolyl)oxazol-4-yl)methyl)piperidin-4-yl)(4-(1-methylpiperidin-4-yl)piperazin-1-yl)methanone]",<3.2 1×10^−6 cm/s
10,"Cc1ccccc1-c1nc(CN2CCC(C(=O)N3CCN(CCN(C)C)CC3)CC2)c(C)o1 [7s, (4-(2-(Dimethylamino)ethyl)piperazin-1-yl)(1-((5-methyl-2-(otolyl)oxazol-4-yl)methyl)piperidin-4-yl)methanone]",14 1×10^−6 cm/s
11,"Cc1cccc(F)c1-c1nc(CN2CCC(C(=O)NCCCN3C[C@H](C)C[C@H](C)C3)CC2)c(C)o1 [7ss, N-(3-(cis-3,5-Dimethylpiperidin-1-yl)propyl)-1-((2-(2-fluoro-6-methylphenyl)-5-methyloxazol-4-yl)methyl)piperidine-4-carboxamide]",233.8 1×10^−6 cm/s
12,"Cc1cccc(-c2nc(CN3CCC(C(=O)NCCCN4C[C@H](C)C[C@H](C)C4)CC3)c(C)o2)c1 [7t, N-(3-(cis-3,5-Dimethylpiperidin-1-yl)propyl)-1-((5-methyl-2-(mtolyl)oxazol-4-yl)methyl)piperidine-4-carboxamide]",279.1 1×10^−6 cm/s
13,"COc1cccc(Br)c1-c1nc(CN2CCC(C(=O)NCCCN3C[C@H](C)C[C@H](C)C3)CC2)c(C)o1 [7tt, N-(3-(cis-3,5-Dimethylpiperidin-1-yl)propyl)-1-((2-(2-bromo-6-methoxyphenyl)-5-methyloxazol-4-yl)methyl)piperidine-4-carboxamide]",245.3 1×10^−6 cm/s
14,"Cc1ccc(-c2nc(CN3CCC(C(=O)NCCCN4C[C@H](C)C[C@H](C)C4)CC3)c(C)o2)cc1 [7u, N-(3-(cis-3,5-Dimethylpiperidin-1-yl)propyl)-1-((5-methyl-2-(ptolyl)oxazol-4-yl)methyl)piperidine-4-carboxamide]",274.3 1×10^−6 cm/s
15,"COc1cccc(Cl)c1-c1nc(CN2CCC(C(=O)NCCCN3C[C@H](C)C[C@H](C)C3)CC2)c(C)o1 [7uu, N-(3-(cis-3,5-Dimethylpiperidin-1-yl)propyl)-1-((2-(2-chloro-6-methoxyphenyl)-5-methyloxazol-4-yl)methyl)piperidine-4-carboxamide]",51.0 1×10^−6 cm/s
16,"CCc1ccccc1-c1nc(CN2CCC(C(=O)NCCCN3C[C@H](C)C[C@H](C)C3)CC2)c(C)o1 [7v, N-(3-(cis-3,5-Dimethylpiperidin-1-yl)propyl)-1-((2-(2-ethylphenyl)-5-methyloxazol-4-yl)methyl)piperidine-4-carboxamide]",106.1 1×10^−6 cm/s
